PMC11873939, “Target Identification with Live-Cell Photoaffinity Labeling and Mechanism of Action Elucidation of ARN23765, a Highly Potent CFTR Corrector” (Journal of Medicinal Chemistry, 2025)

Columns and labels:
Type in all cases: cell-based
F508del/R1070W-CFTR = target: T1, F508del/R1070W-CFTR (Homo sapiens, UniProt P13569, DEL508-508/R1070W); experiment: Protein maturation assay (WB, band C/(C+B)) in transfected HEK293 cells; conditions: HEK293, 24 h; ARN23765 10 nM, VX-661 3 μM
T1 construct: CFTR identification in pull-down studies and analysis of full-length CFTR in protein maturation assays; expressed in transfected cells; host or cells: HEK293 (transient)
T1 sequence (P13569 with tags, fused parts or gaps DEL508-508/R1070W): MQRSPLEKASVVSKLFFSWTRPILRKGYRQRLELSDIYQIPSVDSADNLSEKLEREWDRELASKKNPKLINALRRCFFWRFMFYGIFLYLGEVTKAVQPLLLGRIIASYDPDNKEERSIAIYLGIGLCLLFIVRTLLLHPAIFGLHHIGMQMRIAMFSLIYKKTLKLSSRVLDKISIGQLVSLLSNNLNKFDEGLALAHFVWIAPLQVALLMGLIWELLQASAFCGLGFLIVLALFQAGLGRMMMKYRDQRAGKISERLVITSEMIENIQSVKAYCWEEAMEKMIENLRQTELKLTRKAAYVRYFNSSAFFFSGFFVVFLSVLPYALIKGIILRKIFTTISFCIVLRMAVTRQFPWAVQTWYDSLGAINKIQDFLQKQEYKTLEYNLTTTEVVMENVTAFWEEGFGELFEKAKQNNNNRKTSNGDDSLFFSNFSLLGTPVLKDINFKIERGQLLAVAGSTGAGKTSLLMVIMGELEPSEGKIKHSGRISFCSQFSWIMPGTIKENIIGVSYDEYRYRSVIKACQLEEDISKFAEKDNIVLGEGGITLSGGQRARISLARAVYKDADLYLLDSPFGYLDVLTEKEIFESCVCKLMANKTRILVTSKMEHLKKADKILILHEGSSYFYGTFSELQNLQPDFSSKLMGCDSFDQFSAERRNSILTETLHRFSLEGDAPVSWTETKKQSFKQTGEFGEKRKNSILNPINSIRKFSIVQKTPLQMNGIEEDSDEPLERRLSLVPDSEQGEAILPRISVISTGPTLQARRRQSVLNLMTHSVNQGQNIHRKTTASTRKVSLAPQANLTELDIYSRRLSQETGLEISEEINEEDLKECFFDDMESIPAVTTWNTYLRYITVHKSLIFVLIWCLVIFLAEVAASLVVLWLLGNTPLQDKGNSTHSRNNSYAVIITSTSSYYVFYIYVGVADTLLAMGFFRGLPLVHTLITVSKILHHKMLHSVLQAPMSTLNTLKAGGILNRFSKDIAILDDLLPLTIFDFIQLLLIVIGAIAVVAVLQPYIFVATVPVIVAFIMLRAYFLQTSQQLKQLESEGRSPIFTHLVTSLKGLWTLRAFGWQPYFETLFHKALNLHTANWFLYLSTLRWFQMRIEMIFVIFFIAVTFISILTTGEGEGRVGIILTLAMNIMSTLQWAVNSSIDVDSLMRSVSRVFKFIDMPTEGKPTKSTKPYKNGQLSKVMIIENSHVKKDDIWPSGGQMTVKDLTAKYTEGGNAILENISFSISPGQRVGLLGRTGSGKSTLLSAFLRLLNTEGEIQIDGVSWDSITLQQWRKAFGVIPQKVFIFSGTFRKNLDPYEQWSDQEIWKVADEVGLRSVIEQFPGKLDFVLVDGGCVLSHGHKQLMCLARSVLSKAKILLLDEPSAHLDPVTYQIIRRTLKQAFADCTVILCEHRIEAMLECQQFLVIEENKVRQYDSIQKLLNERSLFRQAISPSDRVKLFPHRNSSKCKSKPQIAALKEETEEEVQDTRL
Protocol: HEK293 cells were plated in 24-wells at around 80% of confluence and transfected with constructs coding for F508del-CFTR or mutants using JetPEI reagent (101000053, Polyplus Technology) following the manufacturer’s instructions. After 24 h, the correctors were added for a further 24 h. […] For binding site analysis experiments, the cells were kept either at 37 °C (Figure S8) or moved to 30 °C (Figure 9) during incubation with the selected correctors. VX-445 and corrector 3151 were mixed together as a control for maximal protein correction. DMSO (0.2%) was added to nontreated controls. After treatment, cells were lysed in RIPA buffer [50 mM tris-HCl pH 8, 150 mM NaCl, 1% NP40, 0.5% sodium deoxycolate, 0.1% SDS, 2.0 mM EDTA] and lysates were analyzed with WB, as described in the supplementary methods of the Supporting Information.

[1] = target: T2, F508del-CFTR double mutants (K68I, N71I, R74A, F81A, A198Y, W361A, S364F) (Homo sapiens, UniProt P13569, DEL508-508/R74A); experiment: Protein maturation assay (WB) of F508del-CFTR double mutants in transfected HEK293 cells; conditions: F508del/R74A-CFTR; HEK293, 10 nM, 24 h
T2 construct: CFTR identification in pull-down studies and analysis of full-length CFTR in protein maturation assays; expressed in transfected cells; host or cells: HEK293 (transient, pCDNA3.1 constructs, JetPEI)
T2 sequence (P13569 with tags, fused parts or gaps R74A/DEL508-508): as the sequence (P13569 with tags, fused parts or gaps DEL508-508/R1070W) above, with R74A, W1069R counted along it
Protocol: (§1) To confirm in cells the above-predicted binding site for ARN23765, we introduced the investigated single-site mutations into the F508del-CFTR coding sequence. The rescue of double mutant proteins (F508del + new mutation) by ARN23765 was assessed with WB analysis of protein maturation and evaluation of channel activity (FLIPR assay)[40] in transfected HEK293 cells. Since correctors 3151 (type II)[16] and VX-445 (type III)[18] have been reported to bind to different CFTR sites, we used these compounds as controls. As expected, ARN23765-induced maturation of F508del-CFTR was not affected by the N71I substitution. […] Indeed, the corrector was no longer able to promote protein maturation (Figure 9A and S8A). […] The results of protein maturation analysis were mostly confirmed by functional data (Figure 9B and S8B), in which the channel activity of double-mutated proteins was evaluated in terms of the change in cell membrane potential change (FLIPR assay).
(§2) HEK293 cells were plated in 24-wells at around 80% of confluence and transfected with constructs coding for F508del-CFTR or mutants using JetPEI reagent (101000053, Polyplus Technology) following the manufacturer’s instructions. After 24 h, the correctors were added for a further 24 h. Correctors were used at the following concentrations: ARN23765 (10 nM), VX-445 (3 μM), and 3151 (10 μM). For binding site analysis experiments, the cells were kept either at 37 °C (Figure S8) or moved to 30 °C (Figure 9) during incubation with the selected correctors. VX-445 and corrector 3151 were mixed together as a control for maximal protein correction. DMSO (0.2%) was added to nontreated controls. After treatment, cells were lysed in RIPA buffer [50 mM tris-HCl pH 8, 150 mM NaCl, 1% NP40, 0.5% sodium deoxycolate, 0.1% SDS, 2.0 mM EDTA] and lysates were analyzed with WB, as described in the supplementary methods of the Supporting Information. […]
(§3) Site-directed mutagenesis
(§4) Desired mutations were introduced using the QuikChange II XL site-directed mutagenesis kit (200522,
(§5) Agilent Technologies) according to the manufacturer’s instructions. F508del-CFTR pCDNA3.1 was used
(§6) as a template for the synthesis of mutated constructs K68I/F508del-CFTR, N71I/F508del-CFTR,
(§7) S364F/F508del-CFTR. The introduction of the mutation and the whole CFTR sequence were checked by
(§8) Sanger sequencing. Mutants R1070W/F508del-CFTR and R170G-
(§9) CFTR were produced as previously described.4

[2] = target: T3, F508del-CFTR double mutants (K68I, N71I, R74A, F81A, A198Y, W361A, S364F) (Homo sapiens, UniProt P13569, DEL508-508/N71I); experiment: as above; conditions: F508del/N71I-CFTR; HEK293, 10 nM, 24 h
T3 construct: CFTR identification in pull-down studies and analysis of full-length CFTR in protein maturation assays; expressed in transfected cells; host or cells: HEK293 (transient, pCDNA3.1 constructs, JetPEI)
T3 sequence (P13569 with tags, fused parts or gaps N71I/DEL508-508): as the sequence (P13569 with tags, fused parts or gaps DEL508-508/R1070W) above, with N71I, W1069R counted along it
Protocol: as §1, §2, §3, §4, §5, §6, §7, §8, §9

[3] = target: T4, F508del-CFTR double mutants (K68I, N71I, R74A, F81A, A198Y, W361A, S364F) (Homo sapiens, UniProt P13569, DEL508-508/S364F); experiment: as above; conditions: F508del/S364F-CFTR; HEK293, 10 nM, 24 h
T4 construct: CFTR identification in pull-down studies and analysis of full-length CFTR in protein maturation assays; expressed in transfected cells; host or cells: HEK293 (transient, pCDNA3.1 constructs, JetPEI)
T4 sequence (P13569 with tags, fused parts or gaps S364F/DEL508-508): as the sequence (P13569 with tags, fused parts or gaps DEL508-508/R1070W) above, with S364F, W1069R counted along it
Protocol: as §1, §2, §3, §4, §5, §6, §7, §8, §9

[4] = target: T5, F508del-CFTR double mutants (K68I, N71I, R74A, F81A, A198Y, W361A, S364F) (Homo sapiens, UniProt P13569, DEL508-508/F81A); experiment: as above; conditions: F508del/F81A-CFTR; HEK293, 10 nM, 24 h
T5 construct: CFTR identification in pull-down studies and analysis of full-length CFTR in protein maturation assays; expressed in transfected cells; host or cells: HEK293 (transient, pCDNA3.1 constructs, JetPEI)
T5 sequence (P13569 with tags, fused parts or gaps F81A/DEL508-508): as the sequence (P13569 with tags, fused parts or gaps DEL508-508/R1070W) above, with F81A, W1069R counted along it
Protocol: as §1, §2, §3, §4, §5, §6, §7, §8, §9

[5] = target: T6, F508del-CFTR double mutants (K68I, N71I, R74A, F81A, A198Y, W361A, S364F) (Homo sapiens, UniProt P13569, DEL508-508/W361A); experiment: as above; conditions: F508del/W361A-CFTR; HEK293, 10 nM, 24 h
T6 construct: CFTR identification in pull-down studies and analysis of full-length CFTR in protein maturation assays; expressed in transfected cells; host or cells: HEK293 (transient, pCDNA3.1 constructs, JetPEI)
T6 sequence (P13569 with tags, fused parts or gaps W361A/DEL508-508): as the sequence (P13569 with tags, fused parts or gaps DEL508-508/R1070W) above, with W361A, W1069R counted along it
Protocol: as §1, §2, §3, §4, §5, §6, §7, §8, §9

[6] = target: T7, F508del-CFTR double mutants (K68I, N71I, R74A, F81A, A198Y, W361A, S364F) (Homo sapiens, UniProt P13569, A198Y/DEL508-508); experiment: as above; conditions: F508del/A198Y-CFTR; HEK293, 10 nM, 24 h
T7 construct: CFTR identification in pull-down studies and analysis of full-length CFTR in protein maturation assays; expressed in transfected cells; host or cells: HEK293 (transient, pCDNA3.1 constructs, JetPEI)
T7 sequence (P13569 with tags, fused parts or gaps A198Y/DEL508-508): as the sequence (P13569 with tags, fused parts or gaps DEL508-508/R1070W) above, with A198Y, W1069R counted along it
Protocol: as §1, §2, §3, §4, §5, §6, §7, §8, §9

[7] = target: T8, F508del-CFTR double mutants (K68I, N71I, R74A, F81A, A198Y, W361A, S364F) (Homo sapiens, UniProt P13569, DEL508-508/K68I); experiment: as above; conditions: F508del/K68I-CFTR; HEK293, 10 nM, 24 h
T8 construct: CFTR identification in pull-down studies and analysis of full-length CFTR in protein maturation assays; expressed in transfected cells; host or cells: HEK293 (transient, pCDNA3.1 constructs, JetPEI)
T8 sequence (P13569 with tags, fused parts or gaps K68I/DEL508-508): as the sequence (P13569 with tags, fused parts or gaps DEL508-508/R1070W) above, with K68I, W1069R counted along it
Protocol: as §1, §2, §3, §4, §5, §6, §7, §8, §9

Compound: CN(C(=O)c1cccc(-n2nc(C(F)(F)F)c3c2[C@@H](Oc2ccc(C(=O)O)cc2)CCC3)c1)c1ccc2c(c1)OC(F)(F)O2 [ARN23765]
- F508del/R1070W protein maturation (F508del/R1070W-CFTR): further enhanced
- Effect of second mutation on corrector-induced maturation of F508del-CFTR [1]: only slightly reduced
- Effect of second mutation on corrector-induced maturation of F508del-CFTR [2]: not affected
- Effect of second mutation on corrector-induced maturation of F508del-CFTR [3]: only slightly reduced
- Effect of second mutation on corrector-induced maturation of F508del-CFTR [4]: markedly reduced or abolished
- Effect of second mutation on corrector-induced maturation of F508del-CFTR [5]: markedly reduced or abolished
- Effect of second mutation on corrector-induced maturation of F508del-CFTR [6]: markedly reduced or abolished
- Effect of second mutation on corrector-induced rescue of F508del-CFTR [7]: no appreciable change
